US12435066B2, “Substituted tricyclic compounds” (LUPIN LIMITED, priority 2019, dated 2025)

System: pERK in DLD1 cells
Assay: ERK phosphorylation assay after EGF stimulation
Format: cell-based
Details: Homo sapiens, DLD-1, compound 2 h, 200 ng/ml hEGF 5 minutes, alphascreen pERK, read-out: ERK phosphorylation inhibition IC50
Method: Example-128: ERK Phosphorylation Assay Protocol
Compounds were tested for their ability to inhibit pERK after EGF stimulation in DLD1 cells. Cells were seeded at 0.2 million cells per well in 96 well cell binding tissue culture plate in 100 μL complete media and were allowed to settle overnight (16 to 20 h). On the following day, cells were treated with various concentrations of test compounds for 2 h followed by stimulation with 200 ng/ml hEGF (diluted in PBS) for 5 minutes. Cells were then washed once with PBS and lysed in freshly prepared lysis buffer (provided with alphascreen surefire ERK1/2 p-T202/Y204 assay kit, cat no: TGRESB10K, Perkin Elmer). Lysis was carried out in plate shaker for 10-15 mins. Lysate was transferred to […] white opti-plate (Perkin Elmer) and alphascreen for pERK was carried out as per manufacturer's instructions. Plate was read after 2 h incubation in plate shaker at […] 300 RPM, 25-28° C.

Compared with Cc1nc(N[C@H](C)c2cc(N)cc(C(F)(F)F)c2)c2cc(O[C@H]3CCOC3)c3c(c2n1)CC(C)O3 (mixture of isomers) [Compound 118a, (R/S)—N—((R)-1-(3-amino-5-(trifluoromethyl)phenyl)ethyl)-2,8-dimethyl-6-(((S)-tetrahydrofuran-3-yl)oxy)-8,9-dihydrofuro[2,3-h]quinazolin-4-amine], Cc1nc(N[C@H](C)c2cc(N)cc(C(F)(F)F)c2)c2cc(C3CCOCC3)c3c(c2n1)CCC3 [Compound 104, (R)—N-(1-(3-amino-5-(trifluoromethyl)phenyl)ethyl)-2-methyl-6-(tetrahydro-2H-pyran-4-yl)-8,9-dihydro-7H-cyclopenta[h]quinazolin-4-amine] is higher in IC50: 1 to 200 nM for the first, 201 to 500 nM for the second.

Compared with Cc1nc(NC(C)c2cc(N)cc(C(F)F)c2)c2cc(N3CC4(COC4)C3)c3c(c2n1)CC(C)(C)O3 (racemic) [Compound 116, (R/S)—N-(1-(3-amino-5-(difluoromethyl)phenyl)ethyl)-2,8,8-trimethyl-6-(2-oxa-6-azaspiro[3.3]heptan-6-yl)-8,9-dihydrofuro[2,3-h]quinazolin-4-amine], Cc1cc(N)cc(C(C)Nc2nc(C)nc3c4c(c(N5CCOCC5)cc23)CCC4)c1 (single isomer, unassigned) [Compound 80, N-(1-(3-amino-5-methylphenyl)ethyl)-2-methyl-6-morpholino-8,9-dihydro-7H-cyclopenta[h]quinazolin-4-amine] is higher in IC50: 1 to 200 nM for the first, 201 to 500 nM for the second. The first is the more potent here.

Cc1nc(NC(C)c2cccc(C(=O)C(F)(F)F)c2)c2cc(N3CCOCC3)c3c(c2n1)CCC3 (racemic) [Compound 120, (R/S)-2,2,2-trifluoro-1-(3-(1-((2-methyl-6-morpholino-8,9-dihydro-7H-cyclopenta[h]quinazolin-4-yl)amino)ethyl)phenyl)ethan-1-one] and Cc1nc(NC(C)c2cccc(C(C)(C)CO)c2)c2cc(N3CC4(COC4)C3)c3c(c2n1)CCC3 (single isomer, unassigned) [Compound 6, 2-methyl-2-(3-(1-((2-methyl-6-(2-oxa-6-azaspiro[3.3]heptan-6-yl)-8,9-dihydro-7H-cyclopenta[h]quinazolin-4-yl)amino)ethyl)phenyl)propan-1-ol] fall in the same range of IC50: 201 to 500 nM for the first, 201 to 500 nM for the second.

Cc1nc(NC(C)c2cccc(C(F)(F)F)c2F)c2cc(N3CC4(COC4)C3)c3c(c2n1)CCC3 (single isomer, unassigned) [Compound 34, N-(1-(2-fluoro-3-(trifluoromethyl)phenyl)ethyl)-2-methyl-6-(2-oxa-6-azaspiro[3.3]heptan-6-yl)-8,9-dihydro-7H-cyclopenta[h]quinazolin-4-amine] and Cc1nc(N[C@H](C)c2cccc(C(F)(F)CCO)c2F)c2cc(N3CC4(COC4)C3)c3c(c2n1)CCC3 [Compound 70, (R)-3,3-difluoro-3-(2-fluoro-3-(1-((2-methyl-6-(2-oxa-6-azaspiro[3.3]heptan-6-yl)-8,9-dihydro-7H-cyclopenta[h]quinazolin-4-yl)amino)ethyl)phenyl) propan-1-ol] fall in the same range of IC50: 1 to 200 nM for the first, 1 to 200 nM for the second.

Cc1nc(NC(C)c2cccc(C(F)(F)CO)c2C)c2cc(N3CC4(COC4)C3)c3c(c2n1)CCC3 (single isomer, unassigned) [Compound 41, 2,2-difluoro-2-(2-methyl-3-(1-((2-methyl-6-(2-oxa-6-azaspiro[3.3]heptan-6-yl)-8,9-dihydro-7H-cyclopenta[h]quinazolin-4-yl)amino)ethyl)phenyl)ethan-1-ol] and COC[C@H]1CN(c2cc3c(NC(C)c4cccc(C(F)(F)CO)c4C)nc(C)nc3c3c2CCC3)CCO1 (single isomer, unassigned) [Compound 42] fall in the same range of IC50: 1 to 200 nM for the first, 1 to 200 nM for the second.

First: Cc1nc(N[C@H](C)c2cccc(C(F)(F)C(C)(C)O)c2F)c2cc(N3CC[C@](C)(O)C3)c3c(c2n1)CCC3 (single isomer, unassigned) [Compound 61b]
Second: Cc1nc(N[C@H](C)c2cccc(C(F)(F)CO)c2F)c2cc(N3CC[C@](C)(O)C3)c3c(c2n1)CCC3 (single isomer, unassigned) [Compound 67a]
The IC50 of the first is higher: 201 to 500 nM for the first, 1 to 200 nM for the second.

Compared with COCC1CN(c2cc3c(N[C@H](C)c4cccc(C(F)(F)CO)c4F)nc(C)nc3c3c2CCC3)C1 [Compound 9, (R)-2,2-difluoro-2-(2-fluoro-3-(1-((6-(3-(methoxymethyl)azetidin-1-yl)-2-methyl-8,9-dihydro-7H-cyclopenta[h]quinazolin-4-yl)amino)ethyl)phenyl)ethan-1-ol], Cc1nc(N[C@H](C)c2cccc(C(F)(F)CO)c2F)c2cc(N3CCO[C@@H](CO)C3)c3c(c2n1)CCC3 [Compound 86, 2,2-difluoro-2-(2-fluoro-3-((R)-1-((6-((R)-2-(hydroxymethyl)morpholino)-2-methyl-8,9-dihydro-7H-cyclopenta[h]quinazolin-4-yl)amino)ethyl)phenyl)ethan-1-ol] is lower in IC50: 201 to 500 nM for the first, 1 to 200 nM for the second.

First: Cc1nc(N[C@H](C)c2cc(N)cc(C(F)(F)F)c2)c2cc(N3CCC4(CCCO4)CC3)c3c(c2n1)CCC3 [Compound 13, (R)—N-(1-(3-amino-5-(trifluoromethyl)phenyl)ethyl)-2-methyl-6-(1-oxa-8-azaspiro[4.5]decan-8-yl)-8,9-dihydro-7H-cyclopenta[h]quinazolin-4-amine]
Second: COC[C@@H]1CN(c2cc3c(N[C@H](C)c4cc(N)cc(C(F)(F)F)c4)nc(C)nc3c3c2CCC3)CCO1 [Compound 32, N—((R)-1-(3-amino-5-(trifluoromethyl)phenyl)ethyl)-6-((S)-2-(methoxymethyl)morpholino)-2-methyl-8,9-dihydro-7H-cyclopenta[h]quinazolin-4-amine]
The IC50 of the first is lower: 1 to 200 nM for the first, 201 to 500 nM for the second. The first is the more potent here.

First: Cc1nc(N[C@H](C)c2cccc(C(F)(F)C(C)(C)O)c2F)c2cc(N3CCNC(=O)C3)c3c(c2n1)CCC3 [Compound 66, (R)-4-(4-((1-(3-(1,1-difluoro-2-hydroxy-2-methylpropyl)-2-fluorophenyl)ethyl)amino)-2-methyl-8,9-dihydro-7H-cyclopenta[h]quinazolin-6-yl)piperazin-2-one]
Second: Cc1nc(N[C@H](C)c2cccc(C(F)(F)C(C)(C)O)c2F)c2cc(N3CCOCC3=O)c3c(c2n1)CCC3 [Compound 123, (R)-4-(4-((1-(3-(1,1-difluoro-2-hydroxy-2-methylpropyl)-2-fluorophenyl)ethyl)amino)-2-methyl-8,9-dihydro-7H-cyclopenta[h]quinazolin-6-yl)morpholin-3-one]
The IC50 of the first is lower: 1 to 200 nM for the first, 201 to 500 nM for the second.

CC(=O)N1CC=C(c2cc3c(N[C@H](C)c4cc(N)cc(C(F)(F)F)c4)nc(C)nc3c3c2CCC3)CC1 [Compound 90, (R)-1-(4-(4-((1-(3-amino-5-(trifluoromethyl)phenyl)ethyl)amino)-2-methyl-8,9-dihydro-7H-cyclopenta[h]quinazolin-6-yl)-3,6-dihydropyridin-1(2H)-yl)ethan-1-one] and CC(=O)N1CCC(c2cc3c(N[C@H](C)c4cc(N)cc(C(F)(F)F)c4)nc(C)nc3c3c2CCC3)CC1 [Compound 102, (R)-1-(4-(4-((1-(3-amino-5-(trifluoromethyl)phenyl)ethyl)amino)-2-methyl-8,9-dihydro-7H-cyclopenta[h]quinazolin-6-yl)piperidin-1-yl)ethan-1-one] fall in the same range of IC50: 1 to 200 nM for the first, 1 to 200 nM for the second.

First: Cc1nc(N[C@H](C)c2cc(N)cc(C(F)(F)F)c2)c2cc(C3CCN(C(=O)C4CC4)CC3)c3c(c2n1)CCC3 [Compound 100, (R)-(4-(4-((1-(3-amino-5-(trifluoromethyl)phenyl)ethyl)amino)-2-methyl-8,9-dihydro-7H-cyclopenta[h]quinazolin-6-yl)piperidin-1-yl)(cyclopropyl)methanone]
Second: CC(=O)N1CCC(c2cc3c(N[C@H](C)c4cc(N)cc(C(F)(F)F)c4)nc(C)nc3c3c2CCCC3)CC1 [Compound 105, (R)-1-(4-(4-((1-(3-amino-5-(trifluoromethyl)phenyl)ethyl)amino)-2-methyl-7,8,9,10-tetrahydrobenzo[h]quinazolin-6-yl)piperidin-1-yl)ethan-1-one]
The IC50 of the first is higher: 201 to 500 nM for the first, 1 to 200 nM for the second. The second is the more potent here.

Cc1nc(N[C@H](C)c2cccc(C(F)(F)C(C)(C)O)c2F)c2cc(-c3ccc(=O)n(C)c3)c3c(c2n1)N(C)C(=O)C(C)(C)O3 [Compound 122, (R)-4-((1-(3-(1,1-difluoro-2-hydroxy-2-methylpropyl)-2-fluorophenyl)ethyl)amino)-2,8,8,10-tetramethyl-6-(1-methyl-6-oxo-1,6-dihydropyridin-3-yl)-8H-[1,4]oxazino[2,3-h]quinazolin-9(10H)-one] and Cc1nc(N[C@H](C)c2cc(N)cc(C(F)(F)F)c2)c2cc(C3CCC(=O)CC3)c3c(c2n1)CCC3 [Compound 124, (R)-4-(4-((1-(3-amino-5-(trifluoromethyl)phenyl)ethyl)amino)-2-methyl-8,9-dihydro-7H-cyclopenta[h]quinazolin-6-yl)cyclohexan-1-one] fall in the same range of IC50: 201 to 500 nM for the first, 201 to 500 nM for the second.

Work on Cc1nc(N[C@H](C)c2cc(N)cc(C(F)(F)F)c2)c2cc(C3CCC(O)CC3)c3c(c2n1)CCC3 (stereo partly drawn) [Compound 125, (R)-4-(4-((1-(3-amino-5-(trifluoromethyl)phenyl)ethyl)amino)-2-methyl-8,9-dihydro-7H-cyclopenta[h]quinazolin-6-yl)cyclohexan-1-ol] yielded an IC50 of 1 to 200 nM.
